# Laboratory results published in US10669238B2, “Irreversible bruton's tyrosine kinase inhibitor” (HEFEI INSTITUTES OF PHYSICAL SCIENCE, CHINESE ACADEMY OF …, priority 2016, dated 2020).
# Target: BTK protein kinase (Homo sapiens, UniProt Q06187)
# Experiment: In vitro enzymatic activity against BTK (ADP-Glo)
# Format: biochemical
# Details: compound with BTK 4 hours at room temperature, ATP 10 μM, 37° C. 1 hour
# Protocol: In vitro enzymatic activity of the compounds against BTK was determined in a experimental assay of in vitro enzymatic activity using […] kit (purchased from Progema, USA).
# 9 μL of BTK protein kinase (at a concentration of 1.5 ng/μL) was used to react with compounds (1 μL) shown in the following table that were diluted three times in gradient at room temperature for 4 hours (the final concentration of the compound being 10 μM, 3 μM, 1 μM, 0.3 μM, 0.1 μM, 0.03 μM, 0.01 μM, 0.003 μM);
# 2 μL of ATP and 3 μL of the substrate Poly(4:1 Glu, Tyr)Peptide (Promega, USA) (the final concentrations being 10 μM and 0.2 μg/μL, respectively) were added to allow reaction at 37° C. for 1 hour;
# 5 μL of BTK kinase solution after reaction was taken and added into 5 μL of ADP-Glo™ (Promega, USA) reagent to allow reaction at room temperature for 40 mins so as to terminate the kinase reaction and exhaust the remaining ATP;
# 10 μL kinase detecting reagent was added to convert ADP to ATP, and newly synthesized ATP was detected using coupled luciferase/[…] reaction, then the IC50 values were calculated by using a plotting method based on the Envision reading.
# Chain of BTK protein kinase (Q06187 whole entry): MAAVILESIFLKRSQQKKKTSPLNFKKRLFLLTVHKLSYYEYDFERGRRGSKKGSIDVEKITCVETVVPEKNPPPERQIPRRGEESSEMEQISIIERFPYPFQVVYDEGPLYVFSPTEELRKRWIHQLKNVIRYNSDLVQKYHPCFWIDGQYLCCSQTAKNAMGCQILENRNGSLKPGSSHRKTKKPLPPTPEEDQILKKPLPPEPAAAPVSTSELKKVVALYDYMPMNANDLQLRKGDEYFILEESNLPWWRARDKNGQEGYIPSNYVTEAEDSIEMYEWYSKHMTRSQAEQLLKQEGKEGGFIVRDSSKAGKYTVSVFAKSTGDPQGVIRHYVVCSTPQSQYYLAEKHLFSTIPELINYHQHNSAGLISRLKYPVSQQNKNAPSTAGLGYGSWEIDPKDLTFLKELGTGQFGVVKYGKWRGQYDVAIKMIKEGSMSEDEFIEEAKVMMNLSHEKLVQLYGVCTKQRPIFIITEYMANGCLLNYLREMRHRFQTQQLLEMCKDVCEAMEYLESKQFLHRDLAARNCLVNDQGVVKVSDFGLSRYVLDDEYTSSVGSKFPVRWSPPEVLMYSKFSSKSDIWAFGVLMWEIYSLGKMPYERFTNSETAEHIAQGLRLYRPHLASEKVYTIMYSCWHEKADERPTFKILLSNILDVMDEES
Structure (SMILES),IC50 (values in nM) [nM],IC50 (values given in μM) [nM]
"C=CC(=O)Nc1cc(Nc2cc(-c3cccc(NC(=O)c4ccc(N5CCCC5)cc4)c3C)cn(C)c2=O)ccc1C(=O)N1CCOCC1 [Compound 45, N-(3-(5-((3-acrylamide-4-(morpholin-4-carbonyl)phenyl)amino)-1-methyl-6-oxo-1,6-dihydropyridin-3-yl)-2-methylphenyl)-4-(pyrrolidin-1-yl)benzoylamide]",101,–
"Cc1ccc(C(=O)Nc2cccc(-c3cc(Nc4ccc(C(=O)N5CCOCC5)c(NC(=O)CCl)c4)c(=O)n(C)c3)c2C)cc1 [Compound 11, N-(3-(5-((3-chloroacetamide-4-(morpholin-4-carbonyl)phenyl)amino)-1-methyl-6-oxo-1,6-dihydropyridin-3-yl)-2-methylphenyl)-4-(methyl)benzoylamide]",152,–
"C=CC(=O)Nc1cc(Nc2cc(-c3cccc(NC(=O)c4ccc(N(C)C)cc4)c3C)cn(C)c2=O)ccc1C(=O)N1CCCC(O)C1 (stereo not drawn) [Compound 55, N-(3-(5-((3-acrylamide-4-(3-hydroxypiperdin-1-carbonyl)phenyl)amino)-1-methyl-6-oxo-1,6-dihydropyridin-3-yl)-2-methylphenyl)-4-(dimethylamino)benzoylamide]",181,–
"Cc1c(NC(=O)c2ccc(N3CCOCC3)cc2)cccc1-c1cc(Nc2ccc(C(=O)N3CCOCC3)c(NC(=O)CCl)c2)c(=O)n(C)c1 [Compound 16, N-(3-(5-((3-chloroacetamide-4-(morpholin-4-carbonyl)phenyl)amino)-1-methyl-6-oxo-1,6-dihydropyridin-3-yl)-2-methylphenyl)-4-morpholinbenzoylamide]",437,–
"C=CC(=O)Nc1cc(Nc2cc(-c3cccc(NC(=O)c4ccc(C)cc4)c3C)cn(C)c2=O)ccc1C(=O)N1CCOCC1 [Compound 9, N-(3-(5-((3-acrylamide-4-(morpholin-4-carbonyl)phenyl)amino)-1-methyl-6-oxo-1,6-dihydropyridin-3-)-2-methylphenyl)-4-(methyl)benzoylamide]",88.9,–
"C=CC(=O)Nc1cc(Nc2cc(-c3cccc(NC(=O)c4ccc(N(C)C)cc4)c3C)cn(C)c2=O)ccc1C(=O)NCCOC [Compound 53, 2-acrylamide-4-((5-(3-(4-(dimethylamino)benzoylamide)-2-methylphenyl)-1-methyl-2-oxo-1,2-dihydropyridin-3-yl)amino)-N-(2-methoxyethyl)benzoylamide]",667,–
"Cc1c(NC(=O)c2ccc(C(C)(C)C)cc2)cccc1-c1cc(Nc2ccc(C(=O)N3CCOCC3)c(NC(=O)CCl)c2)c(=O)n(C)c1 [Compound 2, N-(3-(5-((3-chloroacetamide-4-(morpholin-4-carbonyl)phenyl)amino)-1-methyl-6-oxo-1,6-dihydropyridin-3-yl)-2-methylphenyl)-4-(tert-butyl)benzamide]",37.9,–
"CCC(=O)Nc1cc(Nc2cc(-c3cccc(NC(=O)c4cc5c(s4)CCCC5)c3C)cn(C)c2=O)ccc1C(=O)N1CCOCC1 [Compound 67, N-(3-(5-((3-propanamide-4-(morpholin-4-carbonyl)phenyl)amino)-1-methyl-6-oxo-1,6-dihydropyridin-3-yl)-2-methylphenyl)-4,5,6,7-tetrahydrobenzo[b]thiophene-2-carboxamide]",25,–
"C=CC(=O)Nc1cc(Nc2cc(-c3cccc(NC(=O)c4ccc(N5CCOCC5)cc4)c3C)cn(C)c2=O)ccc1C(=O)N1CCOCC1 [Compound 15, N-(3-(5-((3-acrylamide-4-(morpholin-4-carbonyl)phenyl)amino)-1-methyl-6-oxo-1,6-dihydropyridin-3-yl)-2-methylphenyl)-4-morpholinbenzoylamide]",262,–
"Cc1c(NC(=O)c2ccc(C(C)(C)C)cc2)cccc1-c1cc(Nc2ccc(C(=O)N3CCCC3)c(NC(=O)CCl)c2)c(=O)n(C)c1 [Compound 32, N-(3-(5-((3-chloroacetamide-4-(pyrrolidin-1-carbonyl)phenyl)amino)-1-methyl-6-oxo-1,6-dihydropyridin-3-yl)-2-methylphenyl)-4-(tert-butyl)benzamide]",29,–
"Cc1c(NC(=O)c2ccc(C(C)(C)C)cc2)cccc1-c1cc(Nc2cccc(NC(=O)CCl)c2)c(=O)n(C)c1 [Compound 22, N-(3-(5-((3-chloroacetamidephenyl)amino)-1-methyl-6-oxo-1,6-dihydropyridin-3-yl)-2-methylphenyl)-4-(tert-butyl)benzamide]",–,5530
"C=CC(=O)Nc1cc(Nc2cc(-c3cccc(NC(=O)c4ccc(C(C)(C)C)cc4)c3C)cn(C)c2=O)ccc1C(=O)OC [Compound 49, 2-acrylamide-4-((5-(3-(4-(tert-butyl)benzamide)-2-methylphenyl)-1-methyl-2-oxo-1,2-dihydropyridin-3-yl)amino)methyl benzoate]",162,–
"C=CC(=O)Nc1cc(NC(=O)c2ccc(C(C)(C)C)cc2)c(C)c(-c2cc(Nc3ccc(C(=O)N4CCOCC4)cc3)c(=O)n(C)c2)c1 [Compound 8, 4-(tert-butyl)-N-(5-(2-acrylamide)-2-methyl-3-(1-methyl-5-((4-(morpholin-4-carbonyl)phenyl)amino)-6-oxo-1,6-dihydropyridin-3-yl)phenyl)benzoylamide]",–,2610
"Cc1c(NC(=O)c2ccc(N(C)C)cc2)cccc1-c1cc(Nc2ccc(C(=O)N3CCOCC3)c(NC(=O)CCl)c2)c(=O)n(C)c1 [Compound 36, N-(3-(5-((3-chloroacetamide-4-(morpholin-4-carbonyl)phenyl)amino)-1-methyl-6-oxo-1,6-dihydropyridin-3-yl)-2-methylphenyl)-4-(dimethylamino)benzoylamide]",24,–
C=CC(=O)Nc1ccc(NC(=O)c2ccc(C(C)(C)C)cc2)c(C)c1-c1cc(Nc2ccc(C(=O)N3CCOCC3)cc2)c(=O)n(C)c1 [Compound 24],–,1770

# The remaining lines, values ahead:
IC50 (values in nM) [nM],IC50 (values given in μM) [nM],Structure (SMILES)
15.4,–,"C=CC(=O)Nc1cc(Nc2cc(-c3cccc(NC(=O)c4cc5ccccc5s4)c3C)cn(C)c2=O)ccc1N(C)C [Compound 93, N-(3-(5-((3-acrylamide-4-(dimethylamino)phenyl)amino)-1-methyl-6-oxo-1,6-dihydropyridin-3-yl)-2-methylphenyl)benzo[b]thiophene-2-carboxamide]"
82,–,"C=CC(=O)Nc1cc(Nc2cc(-c3cccc(NC(=O)c4cc5c(s4)CCCC5)c3C)cn(C)c2=O)ccc1N1CCN(C(C)=O)CC1 [Compound 79, N-(3-(5-((4-(4-acetylpiperazin-1-yl)-3-acrylamidephenyl)amino)-1-methyl-6-oxo-1,6-dihydropyridin-3-yl)-2-methylphenyl)-4,5,6,7-tetrahydrobenzo[b]thiophene-2-carboxamide]"
7.8,–,"C=CC(=O)Nc1cc(Nc2cc(-c3cccc(NC(=O)c4cc5ccccc5s4)c3C)cn(C)c2=O)ccc1N1CCC(N(C)C)CC1 [Compound 84, N-(3-(5-((3-acrylamide-4-(4-(dimethylamino)piperidin-1-yl)phenyl)amino)-1-methyl-6-oxo-1,6-dihydropyridin-3-yl)-2-methylphenyl)benzo[b]thiophene-2-carboxamide]"
23,–,"C=CC(=O)Nc1cc(Nc2cc(-c3cccc(NC(=O)c4ccc(N(C)C)cc4)c3C)cn(C)c2=O)ccc1N1CCN(CC)CC1 [Compound 74, N-(3-(5-((3-acrylamide-4-(4-ethylpiperazin-1-yl)phenyl)amino)-1-methyl-6-oxo-1,6-dihydropyridin-3-yl)-2-methylphenyl)-4-(dimethylamino)benzoylamide]"
23.1,–,"C=CC(=O)Nc1cc(Nc2cc(-c3cccc(NC(=O)c4cc5c(s4)CCCC5)c3C)cn(C)c2=O)ccc1N1CCN(C(C)C)CC1 [Compound 89, N-(3-(5-((3-acrylamide-4-(4-isopropylpiperazin-1-yl)phenyl)amino)-1-methyl-6-oxo-1,6-dihydropyridin-3-yl)-2-methylphenyl)-4,5,6,7-tetrahydrobenzo[b]thiophene-2-carboxamide]"
98.8,–,"C=CC(=O)Nc1cc(Nc2cc(-c3cccc(NC(=O)c4cc5ccccc5s4)c3C)cn(C)c2=O)ccc1N1CCOCC1 [Compound 82, N-(3-(5-((3-acrylamide-4-morpholinophenyl)amino)-1-methyl-6-oxo-1,6-dihydropyridin-3-yl)-2-methylphenyl)benzo[b]thiophene-2-carboxamide]"
6.5,–,"C=CC(=O)Nc1cc(Nc2cc(-c3cccc(NC(=O)c4cc5ccccc5s4)c3C)cn(C)c2=O)ccc1N1CCN(C(C)C)CC1 [Compound 90, N-(3-(5-((3-acrylamide-4-(4-isopropylpiperazin-1-yl)phenyl)amino)-1-methyl-6-oxo-1,6-dihydropyridin-3-yl)-2-methylphenyl)benzo[b]thiophene-2-carboxamide]"
16.7,–,"C=CC(=O)Nc1cc(Nc2cc(-c3cccc(NC(=O)c4cc5c(s4)CCCC5)c3C)cn(C)c2=O)ccc1N1CCC(N(C)C)CC1 [Compound 83, N-(3-(5-((3-acrylamide-4-(4-(dimethylamino)piperidin-1-yl)phenyl)amino)-1-methyl-6-oxo-1,6-dihydropyridin-3-yl)-2-methylphenyl)-4,5,6,7-tetrahydrobenzo[b]thiophene-2-carboxamide]"
71.7,–,"C=CC(=O)Nc1cc(Nc2cc(-c3cccc(NC(=O)c4cc5ccccc5s4)c3C)cn(C)c2=O)ccc1N1CCN(C(C)=O)CC1 [Compound 92, N-(3-(5-((4-(4-acetylpiperazin-1-yl)-3-acrylamidephenyl)amino)-1-methyl-6-oxo-1,6-dihydropyridin-3-yl)-2-methylphenyl)benzo[b]thiophene-2-carboxamide]"
